Legend:
[1] = biological target: T1, GFP-Inka1:Flag-PAK4cat crystal (Homo sapiens, UniProt O96013); assay: Live cell imaging of GFP-Inka1:PAK4cat crystal growth; assay type: cell-based; conditions: 5 μM, FIG. 6d
T1 construct: the kinase catalytic domain of human PAK4 (278-591); expressed in transfected cells
Procedure: The cells were plated at 50% confluence glass cover slips overnight: plasmid transfection used GFP-iBox-Pak4cat and FLAG-iBox-Pak4cat constructs at a ratio of 4:1 to promote crystal nucleation. The cover slips were transferred to a Chamlide magnetic chamber (Live cell instruments, Seoul, Korea) with 5% CO2 at 37° C. for live imaging on an Zeiss Axiovert 200M Live Cell Imaging with a 10× objective. We imaged multiple chosen regions for 8 hours at 6 min intervals. To measure crystal growth rate, we used instead a Nikon Eclipse Ti microscope equipped with spinning disk confocal attachment (Yokogawa CSU-22 module) to avoid photo-damage. The cells were imaged at 60×1.4 NA objective at 2 min intervals. For SIM and confocal imaging, cells were fixed in non-hardening mounting media (Vectashield). The slides were imaged by Delta vision OMX SIM with a 100×1.4 NA objective. Confocal imaging used an Olympus FV1000 upright system with 60×1.42NA objective. The 3D stacks were analyzed by IMARIS software.

PAK1 = PAK1 (Homo sapiens, UniProt Q13153); assay: In vitro kinase assay, phosphorylation of GST-Raf13 by 6His-PAK1 (activated); assay type: biochemical; conditions: FIG. 1c
Procedure: (§1) Purified PAK1 or PAK4 (50 nM in 25-50 μl) were incubated with 10 μM GST-Raf1S338 peptide in 10 μM ATP (2 μCi of γ32P ATP) of kinase buffer (25 mM Hepes, pH 7.3, 0.1% Triton-X100, 50 mM KCl, 10 mM MgCl2, 1 mM DTT) at 30° C. for 20 min. Samples were analysed by SDS-polyacrylamide gel electrophoresis, or adsorption of the GST substrate mix onto PVDF membranes, followed by extensive washing to remove free γ32P-ATP. The synthetic peptides of 95% purity, as determined by HPLC and MS analyses (GenScript), were soluble in aqueous PBS. Stock solutions (10 mM) were quantified via calculated extinction coefficients and absorbance measurements at 280 nm and stored at −80° C. The diluted peptides were incubated at the indicated concentrations with the kinase on ice (10 min) before addition of γ32P ATP and subsequent incubation at 30° C. The synthetic peptide array (Jerini Biotools) was phosphorylated in situ as described previously.

PAK4cat = biological target: T2, PAK4cat (Homo sapiens, UniProt O96013); assay: In vitro kinase assay, phosphorylation of GST-Raf13 by PAK4cat; assay type: biochemical; conditions: FIG. 1c
T2 construct: PAK1 (1-545) and PAK4 (286-591), respectively; 6His (N); made in house; host or cells: Escherichia coli BL21-CodonPlus(DE3)
Procedure: as §1

T1 sequence (O96013 278-591): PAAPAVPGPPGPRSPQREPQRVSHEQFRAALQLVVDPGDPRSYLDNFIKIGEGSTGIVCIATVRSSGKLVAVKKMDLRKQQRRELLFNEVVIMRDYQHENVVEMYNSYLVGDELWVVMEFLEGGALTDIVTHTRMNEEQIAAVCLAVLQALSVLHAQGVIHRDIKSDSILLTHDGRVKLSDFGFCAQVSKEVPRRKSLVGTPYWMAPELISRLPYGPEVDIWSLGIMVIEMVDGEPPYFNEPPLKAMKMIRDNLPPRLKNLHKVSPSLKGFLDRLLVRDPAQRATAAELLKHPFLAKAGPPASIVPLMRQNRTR
Sequence of PAK1 (Q13153 whole entry): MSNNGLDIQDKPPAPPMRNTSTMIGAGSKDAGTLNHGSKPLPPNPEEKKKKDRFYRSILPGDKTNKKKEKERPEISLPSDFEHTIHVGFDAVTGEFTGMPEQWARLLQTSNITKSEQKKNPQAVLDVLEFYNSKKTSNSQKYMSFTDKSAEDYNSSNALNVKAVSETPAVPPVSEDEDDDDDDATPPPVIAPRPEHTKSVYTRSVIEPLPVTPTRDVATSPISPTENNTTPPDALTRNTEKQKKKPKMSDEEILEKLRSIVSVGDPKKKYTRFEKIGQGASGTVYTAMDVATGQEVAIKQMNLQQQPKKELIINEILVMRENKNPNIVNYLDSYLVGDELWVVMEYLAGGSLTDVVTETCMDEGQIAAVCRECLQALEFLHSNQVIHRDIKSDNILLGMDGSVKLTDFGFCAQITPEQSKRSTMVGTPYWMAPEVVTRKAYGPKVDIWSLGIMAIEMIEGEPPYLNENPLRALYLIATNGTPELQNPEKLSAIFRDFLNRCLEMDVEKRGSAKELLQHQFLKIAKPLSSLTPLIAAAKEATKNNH
T2 sequence (O96013 286-591): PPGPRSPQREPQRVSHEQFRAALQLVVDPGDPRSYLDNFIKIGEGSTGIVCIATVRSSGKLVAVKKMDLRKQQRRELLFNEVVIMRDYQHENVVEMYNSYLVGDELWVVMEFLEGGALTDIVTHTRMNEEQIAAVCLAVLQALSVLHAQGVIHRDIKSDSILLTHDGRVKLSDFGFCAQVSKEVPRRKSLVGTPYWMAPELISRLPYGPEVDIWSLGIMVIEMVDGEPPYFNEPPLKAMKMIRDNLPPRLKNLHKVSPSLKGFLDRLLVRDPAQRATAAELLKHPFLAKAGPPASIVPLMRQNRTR

GFP signal of co-crystals during the elongation phase ([1]; GFP-Inka1:HA-PAK4cat co-crystals) | crystal growth after drug addition ([1]; growing GFP-Inka1:Flag-PAK4cat crystal) | effect on PAK1 (PAK1) | PAK4cat inhibition in vitro (PAK4cat) | Molecule
depleted of GFP signal | slowed | – | – | Cc1nc(Nc2[nH]nc3c2CN(C(=O)N[C@H](CN(C)C)c2ccccc2)C3(C)C)c2sccc2n1 [PF-03758309]
– | – | does not affect | potent | GST-iBox: recombinant 38 amino acid 'Inka box' (Inka1 residues 166-203) as GST fusion

— patent US10822723B2, “Fusion protein crystal comprising a moiety” (Agency for Science, Technology and Research, priority 2015, dated 2020)
